Laboratory results taken from patent publication US5478807A, “Use of relaxin in the treatment of bradycardia” (Genentech, Inc., priority 1992, dated 1995).
Read-outs that look alike come from different tables or passages of the source.

Legend:
[1] = target: T1, relaxin receptors in the atria of rat heart (Rattus norvegicus, UniProt Q6R6I6); test: Displacement of 32P-relaxin binding in rat heart tissue sections (autoradiography); details: for Kd: read-out: dissociation constant (Kd)
T1 construct: The frozen tissues were sectioned to 16 μm thickness; from tissue; host or cells: rat heart (right and left atrium) frozen sections, from normal and from hormone-treated gonadectomized rats
T1 sequence (Q6R6I6 1-758): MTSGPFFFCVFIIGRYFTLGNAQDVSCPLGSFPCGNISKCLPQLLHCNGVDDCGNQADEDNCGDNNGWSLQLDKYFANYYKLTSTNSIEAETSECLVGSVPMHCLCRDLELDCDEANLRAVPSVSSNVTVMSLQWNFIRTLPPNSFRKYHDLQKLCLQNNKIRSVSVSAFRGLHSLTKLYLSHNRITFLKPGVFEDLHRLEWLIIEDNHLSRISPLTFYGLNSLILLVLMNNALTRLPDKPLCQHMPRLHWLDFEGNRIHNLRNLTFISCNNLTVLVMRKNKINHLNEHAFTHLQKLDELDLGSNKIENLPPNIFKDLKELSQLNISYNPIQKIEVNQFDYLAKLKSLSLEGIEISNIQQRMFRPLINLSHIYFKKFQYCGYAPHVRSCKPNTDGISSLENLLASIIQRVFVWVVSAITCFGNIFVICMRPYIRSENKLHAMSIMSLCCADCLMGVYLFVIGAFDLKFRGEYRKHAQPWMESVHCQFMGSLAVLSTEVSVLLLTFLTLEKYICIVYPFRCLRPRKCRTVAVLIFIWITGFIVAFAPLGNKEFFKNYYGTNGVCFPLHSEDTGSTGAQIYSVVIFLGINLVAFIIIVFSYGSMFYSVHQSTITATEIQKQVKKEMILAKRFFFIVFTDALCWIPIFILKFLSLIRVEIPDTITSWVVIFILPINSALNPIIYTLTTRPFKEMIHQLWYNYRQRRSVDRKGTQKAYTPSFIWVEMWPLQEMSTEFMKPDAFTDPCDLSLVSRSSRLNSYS
Procedure: (§1) Ten-week-old normal male and cyclic female Sprague-Dawley rats (Charles River Breeding Laboratories, Wilmonton, Mass.) were used for binding specificity and binding displacement experiments. These were given food and water ad libidium and housed in a room with the ambient temperature controlled around 21° C.
For hormonal control experiments, 10-11-week-old female rats were ovariectomized for two weeks and then injected s.c. with 10 μg estradiol cyclopentyl propionate in a […] vehicle or with vehicle alone. Likewise, 10-11-week-old male rats were castrated for 2 weeks and were injected with either 10 μg estradiol cyclopentyl propionate, 10 μg testosterone, or vehicle alone. The rats were sacrificed 7 days later by asphyxiation with CO2. The relevant tissues were removed rapidly and frozen in powdered dry ice immediately.
(§2) The frozen tissues were sectioned to 16 μm thickness using a Reichert-Jung Model 2800 Frigocut cryostat (Cambridge Instruments). Tissue sections were fixed onto gelatin/chromium potassium sulfate treated microscope slides by warming, and immediately refrozen and stored at -80° C. overnight or longer.
For binding of ^32 P-relaxin to the tissue sections, frozen slides were prewashed with binding buffer (Hank's balanced salt solution supplemented with 20 mMHEPES, pH 7.2, 1 mg/ml BSA, 0.1 mM PMSF, and 1 μg/ml leupeptin) at 4° C. for 1.5-2 hours. The tissue sections were then covered with 600-700 μl of 100 pM ^32 P-relaxin with or without excess unlabeled relaxin and other competing agents as specificity control, and incubated at 4° C. for one hour. The slides were washed 3 times for 15-30 minutes each, with binding buffer. The slides were air-dried and mounted on filter paper and exposed to Hyperfilm-βMAX (Amersham) for 3-5 days.
Regions of binding were determined by overlaying the autoradiographs with adjacent sections counterstained with hematoxylin-eosin. For relaxin binding displacement experiments, consecutive 16 μm sections were incubated with 100 pM of ^32 P-relaxin in the absence and presence of increasing concentrations (serial three-fold increases) of unlabeled relaxin in the range of 0.1-100 nM. Pseudocolor reconstruction and quantitative analysis of ^32 P-relaxin binding autoradiographs were performed with a RAS-3000 image analysis system (Amersham). The OD or radioactivities (cpm) of bound ^32 P relaxin (maximum binding in a particular region) were quantified by computerized densitometry based on parallel sets of ^32 P-relaxin standards (ranging from 50 to 2000 cpm) blotted onto nitrocellulose membranes (Trans-Blot SF, Bio-Rad, Richmond, Calif.). The binding inhibition data were fit to a four parameter equation to obtain the ED50 (the concentration of unlabeled relaxin yielding 50% displacement of the binding of ^32 p-relaxin). The dissociation constant (Kd) for relaxin was calculated by the method of Cheng and Prusoff [Biochem. Pharmacol. 22, 3099-3108 (1973)].

[2] = target: T2, relaxin binding sites in the rat uterus (Rattus norvegicus, UniProt Q6R6I6); test: Displacement of 32P-relaxin binding in rat uterus tissue sections (autoradiography)
T2 construct: The frozen tissues were sectioned to 16 μm thickness; from tissue; host or cells: rat uterus (uterine horn, cervix) frozen sections
T2 sequence (Q6R6I6 1-758): T1 sequence (Q6R6I6 1-758)
Procedure: as §1
as §2, with “longer. […]” for “longer.”
Regions of binding were determined by overlaying the autoradiographs with adjacent sections counterstained with hematoxylin-eosin. […] Pseudocolor reconstruction and quantitative analysis of ^32 P-relaxin binding autoradiographs were performed with a RAS-3000 image analysis system (Amersham). The OD or radioactivities (cpm) of bound ^32 P relaxin (maximum binding in a particular region) were quantified by computerized densitometry based on parallel sets of ^32 P-relaxin standards (ranging from 50 to 2000 cpm) blotted onto nitrocellulose membranes (Trans-Blot SF, Bio-Rad, Richmond, Calif.). […] The dissociation constant (Kd) for relaxin was calculated by the method of Cheng and Prusoff [Biochem. Pharmacol. 22, 3099-3108 (1973)].

relaxin
displacement of the binding of 100 pM 32P-relaxin ([1]; 100 nM competitor, normal female rat heart): displacement of the binding of 100 pM ^32 P-relaxin by 100 nM unlabeled relaxin | displacement of the binding of 32P-relaxin ([1]; 100 nM unlabeled relaxin, atria of normal male rat heart): fully displaced | Kd ([1]; atria of estrogen-treated ovariectomized rat heart): 0.86 ± 0.35 nM | Kd ([1]; atria of normal female rat heart, displacement of 32P-H2 relaxin, mean±S.E. of two regions): 1.37 ± 0.13 nM | extent of displacement of 32P-relaxin binding ([1]; heart, increasing concentrations of unlabeled relaxin): total displacement | Kd ([2]; rat uterus (uterine horn, cervix), displacement of 100 pM 32P-relaxin, mean±S.E. of two regions, read-out: dissociation constant (Kd)): 1.3 ± 0.22 nM | extent of displacement of 32P-relaxin binding ([2]; uterus, increasing concentrations of unlabeled relaxin): partial displacement
